Here are results for three molecules from PubChem BioAssay AID200 (DTP/NCI, 2004).

Values joined by “and” are separate entries in the source; they are usually repeats but may differ in a detail not shown here. Identical values can stand only once. Toxic doses and inconclusive results are not listed.

The experiment concerns B6C3F1 mice, B16 melanoma ip, median survival T/C. Put plainly: NCI In Vivo Anticancer Drug Screen. Data for tumor model B16 Melanoma (intraperitoneal) in B6C3F1 mice. The conditions noted are these: endpoint: median survival time, schedule: Q01DX009 (ip), higher = longer survival. The gist of the method: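 Transplantable tumor in mice; treated vs vehicle control groups; survival or tumor size measured; value = T/C ratio.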

In the case of `CN(C)N=Nc1ccc(C(N)=O)cc1`, the T/C (dose: 4.5 mg/kg/injection, vehicle: saline with Tween-80) is 110 % of control; the T/C (dose: 7.5 mg/kg/injection, vehicle: saline with Tween-80) is 114 % of control; the T/C (dose: 8.0 mg/kg/injection, vehicle: saline with Tween-80) is 107 % of control; the T/C (dose: 12.5 mg/kg/injection, vehicle: saline with Tween-80) is 119 % of control and 120 % of control; the T/C (dose: 13.0 mg/kg/injection, vehicle: saline with Tween-80) was 101 % of control; the T/C (dose: 20.83 mg/kg/injection, vehicle: saline with Tween-80) was 114 % of control and 288 % of control. In addition, the T/C was 118 % of control (dose: 21.0 mg/kg/injection, vehicle: saline with Tween-80); 110 % of control and 115 % of control (dose: 34.72 mg/kg/injection, vehicle: saline with Tween-80); 111 % of control (dose: 35.0 mg/kg/injection, vehicle: saline with Tween-80); 124 % of control (dose: 57.86 mg/kg/injection, vehicle: saline with Tween-80); 118 % of control (dose: 58.0 mg/kg/injection, vehicle: saline with Tween-80); 117 % of control (dose: 96.0 mg/kg/injection, vehicle: saline with Tween-80).
`COc1cc2cc(c1Cl)N(C)C(=O)CC(OC(=O)C(C)N(C)C(=O)C(C)C)C1(C)OC1C(C)C1CC(O)(NC(=O)O1)C(OC)/C=C/C=C(C)C2OC` (stereo unspecified): the T/C reads like this: (dose: 2.0 micrograms/kg/injection, vehicle: Klucel (hydroxypropylcellulose) (HPC)) 196 % of control; (dose: 4.0 micrograms/kg/injection, vehicle: Klucel (hydroxypropylcellulose) (HPC)) 157 % of control and 165 % of control and 213 % of control; (dose: 4.0 micrograms/kg/injection, vehicle: distilled water + alcohol) 103 % of control; (dose: 8.0 micrograms/kg/injection, vehicle: Klucel (hydroxypropylcellulose) (HPC)) 172 % of control and 185 % of control and 245 % of control; (dose: 8.0 micrograms/kg/injection, vehicle: distilled water + alcohol) 101 % of control; (dose: 16.0 micrograms/kg/injection, vehicle: Klucel (hydroxypropylcellulose) (HPC)) 172 % of control and 194 % of control and 232 % of control. In addition, the T/C (dose: 16.0 micrograms/kg/injection, vehicle: distilled water + alcohol) was 114 % of control; the T/C (dose: 32.0 micrograms/kg/injection, vehicle: Klucel (hydroxypropylcellulose) (HPC)) is 183 % of control and 207 % of control; the T/C (dose: 32.0 micrograms/kg/injection, vehicle: distilled water + alcohol) was 119 % of control and 122 % of control; the T/C (dose: 64.0 micrograms/kg/injection, vehicle: distilled water + alcohol) is 105 % of control; the T/C (dose: 128.0 micrograms/kg/injection, vehicle: distilled water + alcohol) was 114 % of control.
Take `C(=C\c1nc2ccccc2[nH]1)/c1nc2ccccc2[nH]1`: the T/C was 96 % of control (dose: 25.0 mg/kg/injection, vehicle: saline with Tween-80); 98 % of control (dose: 50.0 mg/kg/injection, vehicle: saline with Tween-80); 87 % of control (dose: 200.0 mg/kg/injection, vehicle: saline with Tween-80).
